Data on 15 compounds can be found in ChEMBL document CHEMBL1139085, “Synthesis and biological evaluation of fenobam analogs as mGlu5 receptor antagonists” (Bioorg Med Chem Lett, 2007).

Structures are written as SMILES. Activity calls are given as the source filed them. The calls are words filed in the database; no cut-off is given here.

Data set [1] deals with T1, Metabotropic glutamate receptor 5 (Homo sapiens, UniProt P41594). In words: Displacement of [3H]MPEP from mGlu5 receptor. A general note: Loss of bound radioactivity is the signal in a displacement assay; it reports binding, not function.
T1 sequence (P41594 whole entry): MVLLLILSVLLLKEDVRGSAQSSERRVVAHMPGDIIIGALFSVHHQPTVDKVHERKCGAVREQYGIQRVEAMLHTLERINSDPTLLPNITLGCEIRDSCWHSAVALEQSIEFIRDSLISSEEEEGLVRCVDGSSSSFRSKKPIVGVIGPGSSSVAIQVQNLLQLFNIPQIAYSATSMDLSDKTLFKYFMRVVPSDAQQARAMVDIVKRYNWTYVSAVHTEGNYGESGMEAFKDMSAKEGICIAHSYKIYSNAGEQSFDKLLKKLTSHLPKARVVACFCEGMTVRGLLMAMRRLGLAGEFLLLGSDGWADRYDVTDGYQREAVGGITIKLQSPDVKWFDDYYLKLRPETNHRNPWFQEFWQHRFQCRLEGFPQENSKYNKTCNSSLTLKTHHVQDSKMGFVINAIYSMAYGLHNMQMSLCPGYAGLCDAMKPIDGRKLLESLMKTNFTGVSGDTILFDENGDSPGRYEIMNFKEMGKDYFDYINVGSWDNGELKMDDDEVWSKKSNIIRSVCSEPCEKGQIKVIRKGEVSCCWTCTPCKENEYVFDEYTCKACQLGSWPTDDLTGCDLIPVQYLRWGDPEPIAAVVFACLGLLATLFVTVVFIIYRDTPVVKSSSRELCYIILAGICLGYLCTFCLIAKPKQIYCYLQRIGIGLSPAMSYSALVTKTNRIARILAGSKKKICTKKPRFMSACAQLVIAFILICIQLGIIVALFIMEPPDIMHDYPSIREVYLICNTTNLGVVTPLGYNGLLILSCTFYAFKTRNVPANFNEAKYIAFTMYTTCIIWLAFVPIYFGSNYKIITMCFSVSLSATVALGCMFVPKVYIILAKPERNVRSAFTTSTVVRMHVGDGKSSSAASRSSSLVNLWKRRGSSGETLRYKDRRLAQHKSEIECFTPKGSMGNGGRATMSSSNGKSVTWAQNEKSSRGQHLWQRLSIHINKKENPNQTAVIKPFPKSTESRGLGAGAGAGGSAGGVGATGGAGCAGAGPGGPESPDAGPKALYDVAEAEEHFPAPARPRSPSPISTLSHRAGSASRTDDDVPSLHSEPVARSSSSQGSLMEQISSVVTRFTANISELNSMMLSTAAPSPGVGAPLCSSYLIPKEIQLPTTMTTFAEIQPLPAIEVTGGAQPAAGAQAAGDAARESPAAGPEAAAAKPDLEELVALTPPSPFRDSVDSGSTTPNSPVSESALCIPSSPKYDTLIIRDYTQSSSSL
The target of data set [2] is T1, Metabotropic glutamate receptor 5. In words: Antagonist activity at mGluR5 by FLIPR. It is filed as functional.
The nature of data set [3]: Metabolic stability in rat liver microsomes. It is filed as ADME, Microsome. Background: Microsomes from liver hold many membrane-bound enzymes, among them those of drug oxidation.
Data set [4] in a line: Metabolic stability in human liver microsomes. In kind it is ADME, Microsome.
Data set [5] relates to Rattus norvegicus. In words: Anxiolytic-like activity in rat assessed as increase in drinking time at 30 mg/kg, po by Vogel conflict test. It is filed as functional, organism-based. More on the design: dose 30 mg/kg.
The species entered for data set [6] is Rattus norvegicus. In words: Anxiolytic-like activity in rat assessed as reversal of foot shock-induced suppression of lever pressing by conditioned emotional response test. It is filed as functional, organism-based.
The subject of data set [7] is Rattus norvegicus. In words: Anxiolytic-like activity in rat assessed as behavioral disruption at 3 to 30 mg/kg, po by conditioned emotional response test. It is filed as functional, organism-based.
For data set [8], the species on record is Rattus norvegicus. The data set can be described thus: Anxiolytic-like activity in rat assessed as reversal of foot shock-induced suppression of lever pressing by conflict test. It is filed as functional, organism-based.
Data set [9] relates to Rattus norvegicus. In words: Anxiolytic-like activity in rat assessed as behavioral disruption at 3 to 30 mg/kg, po by conflict test. In kind it is functional, organism-based.

For the compound `CN1CC(=O)N/C1=N\C(=O)Nc1ccncc1`, the 50% inhibitory concentration (IC50) (usually the concentration needed to halve the response being measured) is 1120 nM in data set [1] and more than 5000 nM in data set [2]. Also, the microsomal CLint (in general, the capacity of the preparation to metabolise the compound, expressed as a volume cleared per time) came to 9 µL/min/mg in [3] and 11 µL/min/mg in data set [4].

For the compound `CN1CC(=O)N=C1NC(=O)Nc1cccc(Cl)c1` [FENOBAM ANHYDROUS], the IC50 in [1] turned out to be 61 nM; in data set [2], 38 nM. For the same compound, the microsomal CLint was determined as 44 µL/min/mg in data set [3] and 100 µL/min/mg in [4].

Consider `CN1CC(=O)N/C1=N\C(=O)Nc1ccccc1Cl`, for which the IC50 in [1] turned out to be 2520 nM; in data set [2], 6800 nM.

Consider `CN1CC(=O)N/C1=N\C(=O)Nc1ccccc1`, for which the half-inhibitory concentration (IC50) in data set [1] came out at 1360 nM; in data set [2] it was 3300 nM.

With `Cc1cccc(C#Cc2ccncc2)n1`, the IC50 in data set [1] is 26 nM; in data set [2], 213 nM.

Turning to `CN1CC(=O)N/C1=N\C(=O)Nc1ccc(Cl)cc1`, the IC50 in data set [1] and in data set [2] was more than 5000 nM in each case.

Consider `Cc1cccc(C#Cc2ccccn2)n1`, for which the results for the IC50 in data set [1] and in [2] were 39 nM and 400 nM, respectively.

For `Cc1cccc(C#Cc2ccc(Cl)cc2)n1`, the results for the IC50 in data set [1] and in data set [2] were 286 nM and 1020 nM, respectively.

In the case of `Cc1cccc(C#Cc2cccnc2)n1`, the IC50 in data set [1] was found to be 10 nM; in [2], 66 nM.

In the case of `CN1CC(=O)N/C1=N\C(=O)Nc1ccccn1`, the values for the half-maximal inhibitory concentration (IC50) in data set [1] and in data set [2] were 587 nM and 1100 nM, respectively. Further, the microsomal CLint in data set [3] came out at 22 µL/min/mg; in data set [4], 47 µL/min/mg.

With `Cc1cccc(C#Cc2cccc(Cl)c2)n1`, the values for the 50% inhibitory concentration (IC50) in [1] and in data set [2] were 3 nM and 7 nM, respectively.

As to `CN1CC(=O)N/C1=N\C(=O)Nc1cccnc1`, the IC50 in data set [1] and in data set [2] was more than 5000 nM in each case. Moreover, the microsomal CLint in data set [3] turned out to be 5 µL/min/mg; in [4], 20 µL/min/mg.

In the case of `CN1CC(=O)N/C1=N\C(=O)Nc1ccsc1`, the IC50 amounted to 700 nM in data set [1] and 4020 nM in data set [2].

For the compound `Cc1cccc(C#Cc2ccccc2Cl)n1`, the results for the IC50 in data set [1] and in data set [2] were 5 nM and 15 nM, respectively.

In the case of `CN1CC(=O)N/C1=N\C(=O)Nc1csc(Cl)c1`, the IC50 in data set [1] is 78 nM; in data set [2], 434 nM. The intrinsic metabolic clearance (microsomal CLint) in [3] came to 27 µL/min/mg; in [4] it was 55 µL/min/mg. Besides, the outcome in the data set on Rattus norvegicus [5] was Active. For the same compound, the Activity entry in the data set filed under Rattus norvegicus [6] and in the data set listed under Rattus norvegicus [8] was “Dose-dependent effect” each time. The outcome in the data set on Rattus norvegicus [7] and in the data set on Rattus norvegicus [9] was inactive.
